From US7582797B2, “Derivatives of 4,4′-dithiobis-(3-aminobutane-1-sulfonates) and compositions comprising the same” (Institute National de la Sante et de la Recherche Medicale …, priority 2003, dated 2009)

Molecular target: T1, recombinant aminopeptidase A (UniProt P16406)
T1 sequence (P16406 1-945): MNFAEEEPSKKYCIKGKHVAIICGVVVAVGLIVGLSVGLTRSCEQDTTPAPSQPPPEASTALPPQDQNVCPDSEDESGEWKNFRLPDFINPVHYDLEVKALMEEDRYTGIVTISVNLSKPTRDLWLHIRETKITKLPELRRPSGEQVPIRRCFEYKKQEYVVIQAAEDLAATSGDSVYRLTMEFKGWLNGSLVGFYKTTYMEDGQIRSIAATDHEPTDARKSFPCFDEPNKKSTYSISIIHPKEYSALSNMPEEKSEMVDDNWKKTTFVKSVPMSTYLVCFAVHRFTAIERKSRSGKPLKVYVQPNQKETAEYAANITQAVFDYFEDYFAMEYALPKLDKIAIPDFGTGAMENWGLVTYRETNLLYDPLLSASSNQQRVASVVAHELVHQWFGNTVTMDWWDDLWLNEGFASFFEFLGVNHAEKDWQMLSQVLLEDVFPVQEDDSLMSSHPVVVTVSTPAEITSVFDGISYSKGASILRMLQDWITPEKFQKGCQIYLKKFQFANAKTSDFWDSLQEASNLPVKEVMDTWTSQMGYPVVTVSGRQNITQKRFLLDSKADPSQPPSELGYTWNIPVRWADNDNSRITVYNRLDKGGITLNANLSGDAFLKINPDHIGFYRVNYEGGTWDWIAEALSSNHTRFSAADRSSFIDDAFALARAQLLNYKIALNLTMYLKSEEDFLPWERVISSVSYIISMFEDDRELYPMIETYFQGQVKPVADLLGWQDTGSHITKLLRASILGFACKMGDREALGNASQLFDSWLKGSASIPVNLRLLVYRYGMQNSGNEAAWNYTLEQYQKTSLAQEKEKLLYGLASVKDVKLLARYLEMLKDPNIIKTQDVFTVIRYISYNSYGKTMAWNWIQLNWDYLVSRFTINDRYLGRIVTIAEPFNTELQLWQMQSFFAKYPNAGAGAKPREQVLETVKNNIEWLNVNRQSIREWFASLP
Test: Determination of the inhibition constants with respect to APA (GluβNa hydrolysis, microplate assay)
Format: biochemical
Conditions: for Ki: recombinant APA, 200 μM GluβNa, pH 7.4 Tris-HCl, 4 mM CaCl2, 37° C.
Description: The compounds 5 were tested, in vitro, on recombinant aminopeptidase A in order to determine their affinity for APA.
The assaying of APA activity is based on the protocol of Goldberg, adapted to the microplate assay scale (Pro Bind® 3915) (Chauvel et al., J. Med. Chem., 1994, 37, 1339-1346).
In vitro, in the presence of calcium ions, APA hydrolyzes α-L-glutamyl-β-naphthylamide (gluβNa) to glutamate and β-naphthylamine (βNa). A diazotization reaction in an acidic medium makes it possible to visualize the β-naphthylamine by formation of a violet-colored complex: spectrophotometric measurement then makes it possible to determine the amount of complex formed and, by reference to a standard curve produced with increasing concentrations of β-naphthylamine, to deduce therefrom the enzymatic activity of the sample.
The GluβNa substrate and the β-naphthylamine (Bachem) are solubilized in dimethyl sulfoxide and 0.1N HCl, respectively, and conserved at −20° C. at a concentration of 10^−2M. The diazotization reaction is carried out in the presence of sodium nitrite (87 mM), of ammonium sulfamate (130 mM) and of N-(1-naphthyl)ethylenediamine dihydrochloride (23 mM).
The reaction takes place at pH 7.4 in 50 mM Tris-HCl buffer, in the presence of calcium (4 mM CaCl2); the sample to be assayed is incubated at 37° C. in the presence of a substrate (200 μM GluβNa) and in the presence or absence of various concentrations of the inhibitor to be tested, in a final volume of 100 μl. The reaction is stopped by the addition of 10 μl of 3N HCl. A standard curve for β-naphthylamine in an acidic medium (addition of 10 μl of 0.1N HCl) is produced in parallel.
The following are added to each well:
25 μl of sodium nitrite (mix, wait 5 min at ambient temperature),
50 μl of ammonium sulfamate (stir, wait 5 min at ambient temperature), then
25 μl of 23 mM N-(1-naphthyl)ethylenediamine dihydrochloride (mix, wait for the violet color to stabilize for approximately 30 min at 37° C.).
The absorbance is subsequently measured at 540 nm.
The compound EC 33 ((S)-3-amino-4-mercaptobutylsulfonic acid) described in application WO 99/36066), a monomer of the compound RB 150 (4,4′-dithiobis-3-aminobutane-1-sulfonic acid) described in application WO 2004/007441, was used as a reference compound.

SMILES	Ki [nM]	inhibitory activity compared with the reference compound (EC 33) (relative to EC 33)	APA-inhibiting activity greater than that of the reference compound (EC 33) by a factor (relative to EC 33)
CC(S)C(N)CCS(=O)(=O)O (stereo not shown) [Compound 5a, 3-Amino-4-mercaptopentane-1-sulfonic acid]	> 100000		
NC(CCS(=O)(=O)O)C(S)c1ccccc1 (stereo not shown) [Compound 5b, 3-Amino-4-mercapto-4-phenylbutane-1-sulfonic acid]	8000		
CC(C)CC(S)C(N)CCS(=O)(=O)O (stereo not shown) [Compound 5c, 3-Amino-4-mercapto-6-methylheptane-1-sulfonic acid]	4000		
NC(CCS(=O)(=O)O)C(S)Cc1ccccc1 (stereo not shown) [Compound 5d, 3-Amino-4-mercapto-5-phenylpentane-1-sulfonic acid]	380	of the same order as or greater than that of the reference compound	
N[C@H](CCS(=O)(=O)O)[C@@H](S)CCc1ccccc1 [Compound 5e1, (3R,4S)-3-Amino-4-mercapto-6-phenylhexane-1-sulfonic acid]	1920		
N[C@@H](CCS(=O)(=O)O)[C@@H](S)CCc1ccccc1 [Compound 5e2, (3S,4S)-3-Amino-4-mercapto-6-phenylhexane-1-sulfonic acid]	30		10
N[C@@H](CCS(=O)(=O)O)[C@H](S)CCc1ccccc1 [Compound 5e3, (3S,4R)-3-Amino-4-mercapto-6-phenylhexane-1-sulfonic acid]	1040		
N[C@H](CCS(=O)(=O)O)[C@H](S)CCc1ccccc1 [Compound 5e4, (3R,4R)-3-Amino-4-mercapto-6-phenylhexane-1-sulfonic acid]	840		
NC(CCS(=O)(=O)O)C(S)CCc1ccccc1 (stereo not shown) [Compound 5e, 3-Amino-4-mercapto-6-phenylhexane-1-sulfonic acid]	80	of the same order as or greater than that of the reference compound	
COc1ccc(CCC(S)C(N)CCS(=O)(=O)O)cc1 (stereo not shown) [Compound 5f, 3-Amino-4-mercapto-6-(4-methoxyphenyl)hexane-1-sulfonic acid]	92	of the same order as or greater than that of the reference compound	
COc1ccccc1CCC(S)C(N)CCS(=O)(=O)O (stereo not shown) [Compound 5g, 3-Amino-4-mercapto-6-(2-methoxyphenyl)hexane-1-sulfonic acid]	96	of the same order as or greater than that of the reference compound	
NC(CCS(=O)(=O)O)C(S)CCc1ccc(Br)cc1 (stereo not shown) [Compound 5h, 3-Amino-4-mercapto-6-(4-bromophenyl)hexane-1-sulfonic acid]	110	of the same order as or greater than that of the reference compound	
N[C@H](CS)CCS(=O)(=O)O [EC 33, (S)-3-amino-4-mercaptobutylsulfonic acid, reference compound]	304		
